This is an account of results in US7829063B2, “Development of molecular imaging probes for carbonic anhydrase-IX using click chemistry” (Siemens Medical Solutions USA, Inc., priority 2007, dated 2010).

The term Kd denotes the free concentration of one partner at which half of the binding sites on the other are occupied at equilibrium, for simple one-to-one binding. Read a high Kd as a looser complex.

Test [1] deals with T1, CA-IX (Homo sapiens, UniProt Q16790).
T1 construct: His tag (C); purchased R&D Systems Inc. 2188-CA; host or cells: mouse myeloma cell line NS0
Kind of test: CA-IX combinatorial library screening, competitive fluorescence-based assay with dansylamide (DNSA). The note with it: Table 1, Libraries 1-3; sample concentrations 100 nM and 1000 nM, DNSA 200 μM; screening at 1 μM. The test is classed as binding. In a few lines:
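Recombinant His-tagged CA-IX (NS0-expressed) in phosphate buffer pH 7.4 with test compound at 100 nM or 1000 nM; competitive displacement started with 200 μM dansylamide (stock concentration). After 1 h at 25 °C, fluorescence read at 460 nm (excitation 290 nm).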

The target in test [2] is T1, CA-IX. Kind of test: Binding affinity (Kd) determination for CA-IX inhibitors, DNSA fluorescence competition assay, Scatchard plots. The note with it: Table 3. How it is done: General. […] The human red blood cells were obtained from Research Blood Components, LLC. All absorbance measurements were performed on a SPECTRA MAX M2 plate reader at 25° C. The LC/MS analyses were performed on an Agilent 1100 series LC/MSD (SL) using a 30×2.1 mm Zorbax C8 column with a Phenomenex C18 pre-column. Compound detection was accomplished by electrospray mass spectroscopy in positive selected ion mode (LC/MS-SIM). The elution solvents were acetonitrile and water, contained 0.05% TFA. Nuclear magnetic resonance (NMR) spectra were obtained on a Bruker AMX 300 MHz spectrometer or a Varian 400. 19F NMR spectra were recorded on a Bruker AMX 282.35 MHz or a Varian 400 spectrometer. The mass spectra were recorded on an Agilent 1100 series LC/MSD with electrospray mass spectroscopic detection. Flash column chromatography was performed on Merck silica gel (40-63 μm) using the solvent system indicated. The radiochemical and chemical purities were analyzed by RP-HPLC.
General Procedure of Binding Affinity (Ka) Determination for CA-IX Inhibitors
The assay was based on the observation that the only fluorescence signal detected at 460 nm upon excitation at 290 nm, an absorption […] for DNSA, was that of the DNSA.CA complex. […] The latter were developed for each test compound using mass balance for calculating the concentration of CA bound to DNSA [DNSA.CA], bound to the non-fluorescent sample [CA.Inh] and free CA [CA] in solution. The Kd values were determined from Scatchard plots using the equation below as described by Whitesides et al. [CA.Inh]/[CA]tot.[Inh]=K11^inh−K11^inh{[CA.Inh]+[CA.DNSA]}/([CA]tot)
The terms [CA.DNSA], [CA.Inh], and free CA were calculated using the mass balance based on the known values for the dissociation constant of CA.DNSA and the total concentration of CA in each reaction.

As for `CCOC(=O)c1ccc(Cn2cc(COc3ccc4nc(S(N)(=O)=O)sc4c3)nn2)cc1` [DHK125], the “In Vitro Binding Assay (Library Screening)” value (from here on “In Vitro Binding Assay”) on CA-IX [1] is “√”. In addition, on CA-IX [2], the Kd turned out to be 16.7 nM.

For the molecule `CC(C)[C@@H](C(=O)NCc1ccco1)n1cc(COc2ccc3nc(S(N)(=O)=O)sc3c2)nn1` [DHK127], the “In Vitro Binding Assay” value on CA-IX [1] is recorded as “√”. This molecule also had a Kd on CA-IX [2] of 25 nM.

Consider `NS(=O)(=O)c1ccc(-c2cn(Cn3c(=S)sc4ccccc43)nn2)cc1` [DHK19], for which, at CA-IX [1], the “In Vitro Binding Assay” value was “√”. The Kd at CA-IX [2] came out at 14 nM.

In the case of `COC(=O)[C@H](CSCc1ccccc1)NC(=O)Cn1cc(COc2ccc3nc(S(N)(=O)=O)sc3c2)nn1` [DHK113], the “In Vitro Binding Assay” value on CA-IX [1] was “√ √”. At CA-IX [2], the affinity, expressed as Kd, was 10 nM.

With `CC(C)C(C(=O)NCc1cc(F)ccc1F)n1cc(COc2ccc3nc(S(N)(=O)=O)sc3c2)nn1` (centres unmarked) [DHK117], the “In Vitro Binding Assay” value on CA-IX [1] is “√”. The same molecule returned a Kd at CA-IX [2] of 14.1 nM.

For the molecule `CC(C)[C@H](C(=O)NCc1ccco1)n1cc(-c2ccc(S(N)(=O)=O)cc2)nn1` (stereo in doubt) [DHK25], the “In Vitro Binding Assay” value at CA-IX [1] is listed as “√ √”. The same molecule came in with a Kd at CA-IX [2] of 5 nM.

`NS(=O)(=O)c1nc2ccc(OCc3cn(Cc4cccc(Br)c4)nn3)cc2s1` [DHK121]: the “In Vitro Binding Assay” value on CA-IX [1] is on record as “√”. The same molecule displayed a Kd at CA-IX [2] of 25 nM.

As to `Cc1ccnc(NC(=O)[C@H](Cc2ccccc2)n2cc(-c3ccc(S(N)(=O)=O)cc3)nn2)c1` [DHK7], the “In Vitro Binding Assay” value at CA-IX [1] was “√”. This molecule also displayed an equilibrium dissociation constant (Kd) at CA-IX [2] of 17 nM.

Consider `NS(=O)(=O)c1ccc(-c2cn(Cn3nnc4ccccc43)nn2)cc1` [DHK29], for which, on CA-IX [1], the “In Vitro Binding Assay” value is “√”. The molecule further returned a dissociation constant (Kd) at CA-IX [2] of 20 nM.

`NS(=O)(=O)c1nc2ccc(OCc3cn(CC(=O)N[C@H](CSCc4cccc(OCCOCCOCCF)c4)C(=O)O)nn3)cc2s1` [BW2-45, (S)-3-(3-(2-(2-(2-fluoroethoxy)ethoxy)ethoxy)benzylthio)-2-(2-(4-((2-sulfamoylbenzo[d]thiazol-6-yloxy)methyl)-1H-1,2,3-triazol-1-yl)acetamido) propanoic acid]: binding on CA-IX [2] was characterised by a dissociation constant (Kd) of 5 nM.

As for `COC(=O)[C@H](Cc1ccc(C(F)(F)F)cc1)NC(=O)[C@H](Cc1ccc(OCCF)cc1)n1cc(COc2ccc3nc(S(N)(=O)=O)sc3c2)nn1` [DHK2-127, (S)-methyl 2-((S)-3-(4-(2-fluoroethoxy)phenyl)-2-(4-((2-sulfamoylbenzo[d]thiazol-6-yloxy)methyl)-1H-1,2,3-triazol-1-yl)propanamido)-3-(4-(trifluoromethyl)phenyl)propanoate], on CA-IX [2], binding was put at a Kd of 2 nM.

Turning to `C[N+](C)(C)C[C@H](O)CC(=O)NCCCC[C@@H](C(=O)NCc1ccc(C(F)(F)F)cc1)n1cc(COc2ccc3nc(S(N)(=O)=O)sc3c2)nn1` [DHK2-147], the Kd on CA-IX [2] is 11 nM.

At CA-IX [2], `NS(=O)(=O)c1nc2ccc(OCc3cn([C@@H](Cc4ccccc4)C(=O)NCc4ccc(C(F)(F)F)cc4)nn3)cc2s1` [DHK2-51, (S)-3-phenyl-2-(4-((2-sulfamoylbenzo[d]thiazol-6-yloxy)methyl)-1H-1,2,3-triazol-1-yl)-N-(4-(trifluoromethyl)benzyl)propanamide] gave a Kd of 2.5 nM.

Turning to `CC(C)[C@@H](C(=O)NCc1ccc(C(F)(F)F)cc1)n1cc(COc2ccc3nc(S(N)(=O)=O)sc3c2)nn1` [DHK2-24], the Kd on CA-IX [2] was 1 nM.

As to `NS(=O)(=O)c1nc2ccc(OCc3cn([C@@H](Cc4ccc(OCCF)cc4)C(=O)N[C@@H](CC(=O)O)c4ccccc4)nn3)cc2s1` [DHK2-135], the Kd at CA-IX [2] was determined as 5 nM. This Kd lies about 5-fold higher than the previous one.

`CC(C)C(C(=O)NC(COCc1cccc(OCCO)c1)C(=O)O)n1cc(COc2ccc3nc(S(N)(=O)=O)sc3c2)nn1` (single isomer, unassigned) [VM3-165B] yielded a dissociation constant (Kd) at CA-IX [2] of 11 nM.

Take `COC(=O)[C@@H](CSCc1cccc(O)c1)NC(=O)[C@H](CCO)n1cc(COc2ccc3nc(S(N)(=O)=O)sc3c2)nn1` [VM2-93]: the Kd at CA-IX [2] was determined as 10 nM.

With `CC1(C)O[C@@H](CF)[C@H](COc2ccc(CC(C(=O)NC(Cc3ccc(C(F)(F)F)cc3)C(=O)O)n3cc(COc4ccc5nc(S(N)(=O)=O)sc5c4)nn3)cc2)O1` (some centres unmarked) [BW-139-1A], the Kd at CA-IX [2] came out at 1.7 nM.

As for `CC(C)C(C(=O)NC(Cc1ccc(OCC(O)CF)cc1)C(=O)O)n1cc(COc2ccc3nc(S(N)(=O)=O)sc3c2)nn1` (single isomer, unassigned) [VM4047a], binding at CA-IX [2] was characterised by a dissociation constant (Kd) of 5 nM.

On CA-IX [2], `COC(=O)[C@@H](CSCc1cccc(OCCOCCOCCF)c1)NC(=O)Cn1cc(COc2ccc3nc(S(N)(=O)=O)sc3c2)nn1` [BW2-41, (S)-methyl 3-(3-(2-(2-(2-fluoroethoxy)ethoxy)ethoxy)benzylthio)-2-(2-(4-((2-sulfamoylbenzo[d]thiazol-6-yloxy)methyl)-1H-1,2,3-triazol-1-yl)acetamido)propanoate] had a dissociation constant Kd of 5 nM.

In turn, `NS(=O)(=O)c1nc2ccc(OCc3cn(Cc4ccc(C(=O)O)cc4)nn3)cc2s1` [DHK159] gave a Kd at CA-IX [2] of 14.1 nM.

With `CC(C)[C@@H](C(=O)N[C@H](Cc1ccc(C(F)(F)F)cc1)C(=O)O)n1cc(COc2ccc3nc(S(N)(=O)=O)sc3c2)nn1` [DHK2-160-F1], binding on CA-IX [2] was put at a Kd of 10 nM. This Kd and that of the molecule before are within 1.5-fold of each other.

Regarding `NS(=O)(=O)c1nc2ccc(OCc3cn([C@@H](Cc4ccc(OCCF)cc4)C(=O)N4CCC(C(=O)O)CC4)nn3)cc2s1` [DHK2-120], the Kd at CA-IX [2] is 5 nM.

With `CC(C)[C@@H](C(=O)NCc1ccc(CN(C)C)o1)n1cc(-c2ccc(S(N)(=O)=O)cc2)nn1` [DHK2-95], binding at CA-IX [2] was put at a Kd of 25 nM.

In the case of `COC(=O)C[C@H](NC(=O)[C@H](C(C)C)n1cc(COc2ccc3nc(S(N)(=O)=O)sc3c2)nn1)c1ccc(C(F)(F)F)cc1` [DHK2-130], at CA-IX [2], the Kd was 5 nM.

With `NS(=O)(=O)c1nc2cc(OCc3cn(C(CCO)C(=O)NC(CSCc4cccc(OCCF)c4)C(=O)O)nn3)ccc2s1` (single isomer, unassigned) [VM2-107b], the Kd on CA-IX [2] amounted to 5 nM.

As for `NS(=O)(=O)c1nc2ccc(OCc3cn(CC(=O)N[C@@H](CSCc4ccccc4)C(=O)O)nn3)cc2s1` [DHK161], the Kd at CA-IX [2] stood at 10 nM.

As to `NS(=O)(=O)c1nc2ccc(OCc3cn(Cn4nnc5ccccc54)nn3)cc2s1` [DHK128], on CA-IX [1], the “In Vitro Binding Assay” value is listed as “√”. Further, binding at CA-IX [2] was put at a Kd of 12.5 nM.

As for `CC1(C)O[C@@H](CF)[C@H](COc2ccc(CC(C(=O)NC(Cc3ccc(C(F)(F)F)cc3)C(=O)O)n3cc(COc4ccc5nc(S(N)(=O)=O)sc5c4)nn3)cc2)O1` (some centres unmarked) [BW-369-1B], the affinity at CA-IX [2], expressed as Kd, was 2.5 nM.

Turning to `Cc1ccc(CNC(=O)[C@H](C(C)C)n2cc(COc3ccc4nc(S(N)(=O)=O)sc4c3)nn2)cc1F` [DHK123], at CA-IX [1], the “In Vitro Binding Assay” value was “√”. On CA-IX [2], this molecule came in with a Kd of 12.5 nM.
